Experimental data as given in article PMC10714400, “Antimicrobial Peptide–Peptoid Hybrids with and without Membrane Disruption” (ACS Infectious Diseases, 2023).
Like-named read-outs stand apart in the source and are kept apart here.

Tests used:
A. baumannii ATCC19606 = settings: Table S2
Summary of the method: (§1)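 MTT added (20–30 min, room temperature); MIC read by eye as lowest concentration inhibiting visible growth (yellow). Polymyxin B positive control from 16 μg/mL.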

E. cloacae = test system: E. cloacae
Summary of the method: (§2)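 MIC read visually after MTT staining: lowest compound concentration preventing visible growth (yellow wells). Inoculum ~5 × 10^5 CFU per well in MH broth; static incubation at 37 °C for ca. 18 h.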

E. coli W3110 = test system: E. coli W3110
Summary of the method: as §2

K. pneumoniae NCTC418 = settings: Table S2
Summary of the method: as §1

K. pneumoniae OXA-48 = test system: K. pneumoniae OXA-48
Summary of the method: as §2

P. aeruginosa PAO1 [1] = test system: P. aeruginosa PAO1
Summary of the method: as §2

PA14 2P4 (pmrB) = settings: Table S3; […] MH at pH 8.5
Summary of the method: as §2

PA14 4.13 (phoQ) = test system: PA14 4.13 (phoQ)
Summary of the method: as §2

PA14 4.18 (pmrB) = test system: PA14 4.18 (pmrB)
Summary of the method: as §2

S. aureus COL (MRSA) = test system: S. aureus COL (MRSA)
Summary of the method: as §2

[2] = test system: ZEM-1A (clinical MDR P. aeruginosa isolate)
Summary of the method: as §2

[3] = test system: ZEM9A (clinical MDR P. aeruginosa isolate)
Summary of the method: as §2

[4] = test system: human red blood cells (hRBC); assay: Minimum hemolytic concentration (MHC); type: cell-based; settings: hRBC, 10 mM phosphate buffer, 150 mM NaCl, pH 7.4, 25 °C, 4 h
Description: We also measured minimal hemolysis concentrations (MHC) on human red blood cells by serial 2-fold dilution as an indication of toxicity against eukaryotic cells (Table 1).

B. cenocepacia = settings: MH pH 7.4, 16–20 h at 37 °C
Summary of the method: as §2

P. aeruginosa PA14 = test system: P. aeruginosa PA14
Summary of the method: as §2

S. aureus Newman = test system: S. aureus Newman
Summary of the method: as §2

S. epidermis = test system: S. epidermis
Summary of the method: as §2

S. maltophilia = test system: S. maltophilia
Summary of the method: as §2

P. aeruginosa PAO1 [5] = assay: Bacterial count after treatment, before TEM sample preparation; type: cell-based, Pseudomonas aeruginosa; settings: P. aeruginosa PAO1, […] MH pH 8.5, 10x MIC
Method: (§3) Just before the samples were further prepared for the microscopy, surviving bacteria were quantified by plating 10-fold dilutions of samples in sterilized normal saline (NaCl 0.9%) on LB agar plates. […] The assay was performed in triplicate. Each bacteria sample was centrifuged at 12,000 rpm for 3 min, and the supernatant was discarded. The samples were then further processed and imaged using our previously described protocol.[64]
8. Transmission electron microscopy (TEM)
Table S4: Bacterial counts, 2 hours after treatment, before TEM sample preparation. Data represents triplicates.
Bacteria count after treatment at 10x MIC and 2 h of incubation at 37 °C
Control (non-treated cells) 1 × 10^8 CFU (100)

P. aeruginosa PAO1 [6] = assay: Transmission electron microscopy (TEM); type: cell-based, Pseudomonas aeruginosa; settings: P. aeruginosa PAO1, 10 × MIC, […] MH at pH 8.5, 2 h at 37 °C
Method: Scale bars are 500 nm and 1 μm. Red arrows: membrane perturbations. Blue arrows: intracellular aggregation. Yellow arrows: empty area within the cell.
as §3

Polymyxin B [PMB, reference compound]
MIC A. baumannii ATCC19606 […] 7.4 (A. baumannii ATCC19606; […] MH, pH 7.4): 0.5 µg/mL
MIC A. baumannii ATCC19606 […] 8.5 (A. baumannii ATCC19606; […] MH, pH 8.5): 0.25 µg/mL
MIC A. baumannii ATCC19606 Full MH 7.4 (A. baumannii ATCC19606; full MH, pH 7.4): 0.25 µg/mL
MIC A. baumannii ATCC19606 Full MH 8.5 (A. baumannii ATCC19606; full MH, pH 8.5): 0.25 µg/mL
MIC E. cloacae (E. cloacae; MH pH 7.4, 16–20 h at 37 °C): 0.5 to 1 µg/mL
MIC E. cloacae (E. cloacae; Table S3, […] MH at pH 8.5): 1 to 2 µg/mL
Antibacterial activity as a function of NaCl concentration (E. coli W3110; E. coli W3110, […] MH at pH 8.5, up to 300 mM NaCl): less affected
MIC E. coli W3110 […] 7.4 (E. coli W3110; Table S2, […] MH, pH 7.4): 0.5 µg/mL
MIC E. coli W3110 […] 8.5 (E. coli W3110; Table S2, […] MH, pH 8.5): 0.25 µg/mL
MIC E. coli W3110 Full MH 7.4 (E. coli W3110; Table S2, full MH, pH 7.4): 0.25 µg/mL
MIC E. coli W3110 Full MH 8.5 (E. coli W3110; Table S2, full MH, pH 8.5): < 0.1 µg/mL
MIC K. pneumoniae NCTC418 […] 7.4 (K. pneumoniae NCTC418; […] MH, pH 7.4): 0.5 µg/mL
MIC K. pneumoniae NCTC418 […] 8.5 (K. pneumoniae NCTC418; […] MH, pH 8.5): 0.5 µg/mL
MIC K. pneumoniae NCTC418 Full MH 7.4 (K. pneumoniae NCTC418; full MH, pH 7.4): 0.25 µg/mL
MIC K. pneumoniae NCTC418 Full MH 8.5 (K. pneumoniae NCTC418; full MH, pH 8.5): 0.25 µg/mL
MIC K. pneumoniae OXA-48 (K. pneumoniae OXA-48; MH pH 7.4, 16–20 h at 37 °C): 1 to 2 µg/mL
MIC K. pneumoniae OXA-48 (K. pneumoniae OXA-48; Table S3, […] MH at pH 8.5): 1 to 2 µg/mL
Antibacterial activity as a function of NaCl concentration (P. aeruginosa PAO1 [1]; P. aeruginosa PAO1, […] MH at pH 8.5, up to 300 mM NaCl): less affected
MIC P. aeruginosa PAO1 […] 7.4 (P. aeruginosa PAO1 [1]; Table S2, […] MH, pH 7.4): 0.5 µg/mL
MIC P. aeruginosa PAO1 […] 8.5 (P. aeruginosa PAO1 [1]; Table S2, […] MH, pH 8.5): 0.5 µg/mL
MIC P. aeruginosa PAO1 Full MH 7.4 (P. aeruginosa PAO1 [1]; Table S2, full MH, pH 7.4): 0.5 µg/mL
MIC P. aeruginosa PAO1 Full MH 8.5 (P. aeruginosa PAO1 [1]; Table S2, full MH, pH 8.5): 0.25 µg/mL
MIC P. aeruginosa PAO1 […] (P. aeruginosa PAO1 [1]; diluted MH ([…] MH, pH 8.5) per Table 1 footnote b, 16–20 h at 37 °C): 0.5 µg/mL
MIC P. aeruginosa PA14 2P4 (PA14 2P4 (pmrB)): 1 µg/mL
MIC PA14 4.13 (phoQ) (PA14 4.13 (phoQ); MH pH 7.4, 16–20 h at 37 °C): 0.25 µg/mL
MIC P. aeruginosa PA14 4.13 (PA14 4.13 (phoQ); Table S3, […] MH at pH 8.5): 0.5 µg/mL
MIC PA14 4.18 (pmrB) (PA14 4.18 (pmrB); MH pH 7.4, 16–20 h at 37 °C): 1 µg/mL
MIC P. aeruginosa PA14 4.18 (PA14 4.18 (pmrB); Table S3, […] MH at pH 8.5): 0.25 µg/mL
MIC S. aureus COL (MRSA) […] 7.4 (S. aureus COL (MRSA); Table S2, […] MH, pH 7.4): 8 µg/mL
MIC S. aureus COL (MRSA) […] 8.5 (S. aureus COL (MRSA); Table S2, […] MH, pH 8.5): 1 µg/mL
MIC S. aureus COL (MRSA) Full MH 7.4 (S. aureus COL (MRSA); Table S2, full MH, pH 7.4): > 64 µg/mL
MIC S. aureus COL (MRSA) Full MH 8.5 (S. aureus COL (MRSA); Table S2, full MH, pH 8.5): 2 µg/mL
MIC S. aureus COL (MRSA) Full (S. aureus COL (MRSA); full MH, pH 7.4, 16–20 h at 37 °C): >32 µg/mL
MIC ZEM-1A ([2]; MH pH 7.4, 16–20 h at 37 °C): <0.13 µg/mL
MIC P. aeruginosa ZEM-1A ([2]; Table S3, […] MH at pH 8.5): 1 µg/mL
MIC ZEM9A ([3]; MH pH 7.4, 16–20 h at 37 °C): 2 µg/mL
MIC P. aeruginosa ZEM9A ([3]; Table S3, […] MH at pH 8.5): 1 to 2 µg/mL
MHC ([4]; Table S2): > 2000 µg/mL
MHC [4]: >2000 µg/mL
MIC B. cenocepacia (B. cenocepacia): >16 µg/mL
MIC P. aeruginosa PA14 (P. aeruginosa PA14; MH pH 7.4, 16–20 h at 37 °C): <0.13 µg/mL
MIC P. aeruginosa PA14 (P. aeruginosa PA14; Table S3, […] MH at pH 8.5, 16-20 hours at 37 °C): 0.25 µg/mL
MIC S. aureus Newman (S. aureus Newman; MH pH 7.4, 16–20 h at 37 °C): >16 µg/mL
MIC S. aureus Newman (S. aureus Newman; Table S3, […] MH at pH 8.5): 2 µg/mL
MIC S. epidermis (S. epidermis; MH pH 7.4, 16–20 h at 37 °C): >16 µg/mL
MIC S. epidermis (S. epidermis; Table S3, […] MH at pH 8.5): 2 µg/mL
MIC S. maltophilia (S. maltophilia; MH pH 7.4, 16–20 h at 37 °C): 0.5 µg/mL
MIC S. maltophilia (S. maltophilia; Table S3, […] MH at pH 8.5): 2 µg/mL
Bacteria count after treatment at 10x MIC and 2 h of incubation at 37 °C (% of control) (P. aeruginosa PAO1 [5]): 1 % of control
TEM micrographs, changes in treated bacteria (P. aeruginosa PAO1 [6]): blebbing and a disrupted outer membrane
